Measurements reported in ChEMBL document CHEMBL5252635, “The Mycobacterium tuberculosis mycothiol S-transferase is divalent metal-dependent for mycothiol binding and transfer” (2023).

Legend:
[1] = molecular target: T1, Conserved protein (Mycobacterium tuberculosis) (UniProt O53728)
T1 sequence (whole entry): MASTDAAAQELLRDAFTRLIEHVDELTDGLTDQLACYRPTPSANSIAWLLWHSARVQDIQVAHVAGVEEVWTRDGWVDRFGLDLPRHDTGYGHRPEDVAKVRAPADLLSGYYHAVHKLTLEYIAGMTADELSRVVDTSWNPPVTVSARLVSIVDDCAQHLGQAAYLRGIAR
Description: Binding affinity to Mycobacterium tuberculosis MST assessed as change in melting temperature in presence of zinc by differential scanning fluorimetry method

[2] = molecular target: T1, Conserved protein (Mycobacterium tuberculosis); remark: listed apart in the source
Description: Binding affinity to Mycobacterium tuberculosis MST assessed as change in melting temperature in presence of cobalt by differential scanning fluorimetry method

[3] = molecular target: T1, Conserved protein (Mycobacterium tuberculosis); remark: listed apart in the source
Description: Binding affinity to Mycobacterium tuberculosis MST assessed as melting temperature in presence of cobalt by differential scanning fluorimetry method

[4] = molecular target: T1, Conserved protein (Mycobacterium tuberculosis); remark: listed apart in the source
Description: Binding affinity to Mycobacterium tuberculosis MST assessed as melting temperature in presence of ferrous by differential scanning fluorimetry method

[5] = molecular target: T1, Conserved protein (Mycobacterium tuberculosis); remark: listed apart in the source
Description: Binding affinity to Mycobacterium tuberculosis MST assessed as melting temperature in presence of nickle by differential scanning fluorimetry method

[6] = molecular target: T1, Conserved protein (Mycobacterium tuberculosis); remark: listed apart in the source
Description: Binding affinity to Mycobacterium tuberculosis MST assessed as melting temperature by differential scanning fluorimetry method

[7] = molecular target: T1, Conserved protein (Mycobacterium tuberculosis); remark: listed apart in the source
Description: Binding affinity to Mycobacterium tuberculosis MST assessed as change in melting temperature in presence of ferrous by differential scanning fluorimetry method

[8] = molecular target: T1, Conserved protein (Mycobacterium tuberculosis); remark: listed apart in the source
Description: Binding affinity to Mycobacterium tuberculosis MST assessed as change in melting temperature in presence of nickle by differential scanning fluorimetry method

[9] = molecular target: T1, Conserved protein (Mycobacterium tuberculosis); remark: listed apart in the source
Description: Binding affinity to Mycobacterium tuberculosis MST assessed as melting temperature in presence of zinc by differential scanning fluorimetry method

## CC(=O)N[C@@H](CS)C(=O)N[C@H]1[C@@H](O[C@@H]2[C@H](O)[C@H](O)[C@@H](O)[C@H](O)[C@H]2O)O[C@H](CO)[C@@H](O)[C@@H]1O
[1]
  ΔTm: 12.9 °C
[2]
  ΔTm: 6.1 °C
[3]
  Tm: 65.1 °C
[4]
  Tm: 62.2 °C
[5]
  Tm: 68.9 °C
[6]
  Tm: 59 °C
[7]
  ΔTm: 3.2 °C
[8]
  ΔTm: 9.9 °C
[9]
  Tm: 71.9 °C
